Experimental data reported in patent publication US12612420B2, “Arginase inhibitors and methods of use thereof” (Molecure S.A., priority 2020, dated 2026).
Counter-ions that a name gives are not always drawn.

Assays:
[1] = biological target: T1, recombinant human arginase 1 (hARG1) (Homo sapiens, UniProt P05089); experiment: Human arginase inhibition assay (colorimetric urea detection), arginase 1; assay type: biochemical; details: IC50 class; hydrochloride salts; 1 h at 37° C., pH 7.4, 10 mM L-arginine, 200 μM MnCl2; read-out: Activity Class (ARG I)
T1 construct: made in house; host or cells: E. coli
T1 sequence (P05089 1-322): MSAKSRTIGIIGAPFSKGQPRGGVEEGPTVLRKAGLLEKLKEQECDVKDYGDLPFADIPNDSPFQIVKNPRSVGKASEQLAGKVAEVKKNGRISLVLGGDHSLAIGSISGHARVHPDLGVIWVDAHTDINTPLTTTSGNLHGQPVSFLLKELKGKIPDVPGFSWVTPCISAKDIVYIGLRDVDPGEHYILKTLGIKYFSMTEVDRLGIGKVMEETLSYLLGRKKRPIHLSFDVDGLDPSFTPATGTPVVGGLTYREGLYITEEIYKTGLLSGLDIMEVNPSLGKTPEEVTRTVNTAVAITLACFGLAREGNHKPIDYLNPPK
Procedure: (§1) Human Arginase Inhibition Assay
(§2) The inhibitory activities of the compounds of the invention were assessed using recombinant human arginases 1 and 2. Both enzymes were biosynthesized using a prokaryotic expression system (E. coli) and purified by fast protein liquid chromatography (FPLC). The compounds were screened in 96-well plates at the total reaction volume of 100 μL. Briefly, recombinant enzymes were incubated with the tested compounds for 1 h at 37° C. in the reaction buffer (100 mM sodium phosphate buffer, 130 mM NaCl, 1 mg/mL BSA, pH 7.4) containing substrate (L-arginine hydrochloride, 10 mM for hARG1 and 20 mM for hARG2) and cofactor (200 μM MnCl2). The assay is based on the detection of urea, which is generated during the conversion of L-arginine into L-omithine catalyzed by ARG1 or ARG2 (Baggio et al. J Pharmacol. Exp. Ther. 1999, 290, 1409-1416). The colorimetrically detectable product was developed by adding a mixture of reagent A (4 mM oPA, 50 mM boric acid, 1 M sulfuric acid, 0.03% Brij-35) and reagent B (4 mM NED, 50 mM boric acid, 1 M sulfuric acid, 0.03% Brij-35) in equal proportions. The absorbance for each well was measured at 515 nm and the enzyme inhibition was calculated. The urea production in the absence of any tested compound was considered as maximal enzyme activity. The absorbance at the absence of arginase (background) was subtracted from all the values. The normalized values were analyzed using GraphPad Prism 7.0 software by plotting inhibition curves and determining the IC50 values.
(§3) The inhibitory activity classes of the hydrochloride salts of the exemplary compounds according to the invention are presented in Table 1

[2] = biological target: T2, recombinant human arginase 2 (hARG2) (Homo sapiens, UniProt P78540); experiment: Human arginase inhibition assay (colorimetric urea detection), arginase 2; assay type: biochemical; details: IC50 class; hydrochloride salts; 1 h at 37° C., pH 7.4, 20 mM L-arginine, 200 μM MnCl2; read-out: Activity Class (ARG II)
T2 construct: made in house; host or cells: E. coli
T2 sequence (P78540 23-354): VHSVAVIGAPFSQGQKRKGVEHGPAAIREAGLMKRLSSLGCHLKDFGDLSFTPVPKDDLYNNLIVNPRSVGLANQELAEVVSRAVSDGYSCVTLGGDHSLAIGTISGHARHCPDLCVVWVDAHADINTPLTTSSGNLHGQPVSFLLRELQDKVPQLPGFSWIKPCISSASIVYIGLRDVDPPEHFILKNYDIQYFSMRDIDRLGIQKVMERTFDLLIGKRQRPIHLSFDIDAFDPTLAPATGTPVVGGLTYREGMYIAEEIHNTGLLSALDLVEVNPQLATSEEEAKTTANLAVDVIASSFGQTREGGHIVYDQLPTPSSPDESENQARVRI
Procedure: as §1, §2, §3

IC50 [1] [nM]	IC50 [2] [nM]	Compound
> 300	> 300	COC(=O)[C@@]1(N)C[C@H](CCB(O)O)CC[C@H]1CNC(=O)[C@@H](N)C(C)C [Example 32, (2-((1R,3R,4S)-3-Amino-4-(((S)-2-amino-3-methylbutanamido)methyl)-3-(methoxycarbonyl)cyclohexyl)ethyl)boronic acid dihydrochloride]
100 to 199	> 300	N[C@@H](Cc1c[nH]cn1)C(=O)NC[C@@H]1CC[C@@H](CCB(O)O)C[C@]1(N)C(=O)O [Example 8, (1R,2S,5R)-1-Amino-2-(((S)-2-amino-3-(1H-imidazol-4-yl)propanamido)methyl)-5-(2-boronoethyl)cyclohexane-1-carboxylic acid trihydrochloride]
100 to 199	> 300	CC(C)[C@H](N)C(=O)NC[C@@H]1CC[C@@H](CCB2OC(=O)CC(CC(=O)O)(C(=O)O)O2)C[C@]1(N)C(=O)O (stereo partly drawn) [Example 33, 2-(2-((1R,3R,4S)-3-Amino-4-(((S)-2-amino-3-methylbutanamido)methyl)-3-carboxycyclohexyl)ethyl)-4-(carboxymethyl)-6-oxo-1,3,2-dioxaborinane-4-carboxylic acid dihydrochloride]
> 300	> 300	CC(C)[C@H](N)C(=O)NC[C@H]1CC[C@@H](CCB(O)O)C[C@]1(N)C(=O)O [Example 34, (1R,2R,5R)-1-Amino-2-(((S)-2-amino-3-methylbutanamido)methyl)-5-(2-boronoethyl)cyclohexane-1-carboxylic acid dihydrochloride]
1 to 99	> 300	CC(C)[C@@H](N)C(=O)NC[C@@H]1CC[C@@H](CCB(O)O)C[C@]1(N)C(=O)O [Example 23, (1R,2S,5R)-1-Amino-2-(((R)-2-amino-3-methylbutanamido)methyl)-5-(2-boronoethyl)cyclohexane-1-carboxylic acid dihydrochloride]
100 to 199	> 300	C[C@H](N)C(=O)N(C)C[C@@H]1CC[C@@H](CCB(O)O)C[C@]1(N)C(=O)O [Example 24, (1R,2S,5R)-1-Amino-2-(((S)-2-amino-N-methylpropanamido)methyl)-5-(2-boronoethyl)cyclohexane-1-carboxylic acid dihydrochloride]
1 to 99	> 300	CCC[C@H](N)C(=O)NC[C@@H]1CC[C@@H](CCB(O)O)C[C@]1(N)C(=O)O [Example 20, (1R,2S,5R)-1-Amino-2-(((S)-2-aminopentanamido)methyl)-5-(2-boronoethyl)cyclohexane-1-carboxylic acid dihydrochloride]
100 to 199	> 300	C[C@@H](O)[C@H](N)C(=O)NC[C@@H]1CC[C@@H](CCB(O)O)C[C@]1(N)C(=O)O [Example 19, (1R,2S,5R)-1-Amino-2-(((2S,3R)-2-amino-3-hydroxybutanamido)methyl)-5-(2-boronoethyl)cyclohexane-1-carboxylic acid dihydrochloride]
100 to 199	> 300	CC(C)(O)[C@H](N)C(=O)NC[C@@H]1CC[C@@H](CCB(O)O)C[C@]1(N)C(=O)O [Example 16, (1R,2S,5R)-1-Amino-2-(((S)-2-amino-3-hydroxy-3-methylbutanamido)methyl)-5-(2-boronoethyl)cyclohexane-1-carboxylic acid dihydrochloride]
100 to 199	> 300	N[C@@H](Cc1c[nH]c2ccccc12)C(=O)NC[C@@H]1CC[C@@H](CCB(O)O)C[C@]1(N)C(=O)O [Example 18, (1R,2S,5R)-1-Amino-2-(((S)-2-amino-3-(1H-indol-3-yl)propanamido)methyl)-5-(2-boronoethyl)cyclohexane-1-carboxylic acid dihydrochloride]
100 to 199	> 300	CNCC(=O)NC[C@@H]1CC[C@@H](CCB(O)O)C[C@]1(N)C(=O)O [Example 31, (1R,2S,5R)-1-Amino-5-(2-boronoethyl)-2-((2-(methylamino)acetamido)methyl)cyclohexane-1-carboxylic acid dihydrochloride]
200 to 299	> 300	N[C@@H](Cc1ccc(O)cc1)C(=O)NC[C@@H]1CC[C@@H](CCB(O)O)C[C@]1(N)C(=O)O [Example 14, (1R,2S,5R)-1-Amino-2-(((S)-2-amino-3-(4-hydroxyphenyl)propanamido)methyl)-5-(2-boronoethyl)cyclohexane-1-carboxylic acid dihydrochloride]
1 to 99	100 to 199	N[C@H](C(=O)NC[C@@H]1CC[C@@H](CCB(O)O)C[C@]1(N)C(=O)O)C1CCCC1 [Example 11, (1R,2S,5R)-1-Amino-2-(((S)-2-amino-2-cyclopentylacetamido)methyl)-5-(2-boronoethyl)cyclohexane-1-carboxylic acid dihydrochloride]
100 to 199	> 300	NC(=O)CC[C@H](N)C(=O)NC[C@@H]1CC[C@@H](CCB(O)O)C[C@]1(N)C(=O)O [Example 28, (1R,2S,5R)-1-Amino-5-(2-boronoethyl)-2-(((S)-2,5-diamino-5-oxopentanamido)methyl)cyclohexane-1-carboxylic acid dihydrochloride]
100 to 199	> 300	N[C@@H](CO)C(=O)NC[C@@H]1CC[C@@H](CCB(O)O)C[C@]1(N)C(=O)O [Example 7, (1R,2S,5R)-1-Amino-2-(((S)-2-amino-3-hydroxypropanamido)methyl)-5-(2-boronoethyl)cyclohexane-1-carboxylic acid dihydrochloride]
1 to 99	> 300	CC(C)[C@H](N)C(=O)N(C)C[C@@H]1CC[C@@H](CCB(O)O)C[C@]1(N)C(=O)O [Example 25, (1R,2S,5R)-1-Amino-2-(((S)-2-amino-N,3-dimethylbutanamido)methyl)-5-(2-boronoethyl)cyclohexane-1-carboxylic acid dihydrochloride]
100 to 199	> 300	C[C@H](N)C(=O)NC[C@@H]1CC[C@@H](CCB(O)O)C[C@]1(N)C(=O)O [Example 1, (1R,2S,5R)-1-Amino-2-(((S)-2-aminopropanamido)methyl)-5-(2-boronoethyl)cyclohexane-1-carboxylic acid dihydrochloride]
> 300	> 300	N[C@@H](CCC(=O)O)C(=O)NC[C@@H]1CC[C@@H](CCB(O)O)C[C@]1(N)C(=O)O [Example 30, (1R,2S,5R)-1-Amino-2-(((S)-2-amino-4-carboxybutanamido)methyl)-5-(2-boronoethyl)cyclohexane-1-carboxylic acid dihydrochloride]
200 to 299	> 300	N[C@@H](CS)C(=O)NC[C@@H]1CC[C@@H](CCB(O)O)C[C@]1(N)C(=O)O [Example 27, (1R,2S,5R)-1-Amino-2-(((R)-2-amino-3-mercaptopropanamido)methyl)-5-(2-boronoethyl)cyclohexane-1-carboxylic acid dihydrochloride]
200 to 299	> 300	CC(C)[C@@](C)(N)C(=O)NC[C@@H]1CC[C@@H](CCB(O)O)C[C@]1(N)C(=O)O [Example 21, (1R,2S,5R)-1-Amino-2-((2-amino-2,3-dimethylbutanamido)methyl)-5-(2-boronoethyl)cyclohexane-1-carboxylic acid dihydrochloride]
1 to 99	> 300	C[C@@H](N)C(=O)NC[C@@H]1CC[C@@H](CCB(O)O)C[C@]1(N)C(=O)O [Example 22, (1R,2S,5R)-1-Amino-2-(((R)-2-aminopropanamido)methyl)-5-(2-boronoethyl)cyclohexane-1-carboxylic acid dihydrochloride]
> 300	> 300	CCN[C@]1(C(=O)O)C[C@H](CCB(O)O)CC[C@H]1CNC(=O)[C@H](C)N [Example 35, (1R,2S,5R)-2-(((S)-2-Aminopropanamido)methyl)-5-(2-boronoethyl)-1-(ethylamino)cyclohexane-1-carboxylic acid dihydrochloride]
